# Laboratory results as given in patent US20250115597A1, “TYK2 INHIBITORS AND COMPOSITIONS AND METHODS THEREOF” (LYNK PHARMACEUTICALS CO. LTD., priority 2021, published 2025).
# Read-outs that look alike come from different tables or passages of the source.
# Columns and labels:
# [1] = biological target: T1, Ba/F3-FL-TYK2-P760L cells (Homo sapiens, UniProt P29597, P760L, cells depend on it); experiment: Anti-proliferative assay, Ba/F3-FL-TYK2-P760L cells (Cell-Titer Glo); format: cell-based; details: 72 h, read-out: BaF3-FL-T2P760L IC50
# T1 construct: BaF3-FL-T2P760L (nM)
# How it was run: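 Ba/F3 cells made IL-3-independent by TEL-fused or full-length mutant JAK-family kinases, seeded at 2000/well and dosed after 24 h with 9 three-fold dilutions topping at 20 μM. Viability after 72 h at 37 °C, 5% CO2 by Cell-Titer Glo ATP luminescence.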
# JAK1-JH2 domain = biological target: T2, JAK1-JH2 domain (Homo sapiens, UniProt P23458); experiment: Binding activity test for JH2 domain of JAK1 (Tb-antibody/tracer FRET)
# T2 construct: IC50 on JH2 domain activity (nM)
# Description: (§1) Binding Activity Test for […] Domain of JAK1 and TYK2 The compounds are prepared in DMSO for 200× top dose, then serial dilute it with 27-fold for 3 more points. Add 8 μL/well in echo source plate, echo will add 75 nL/well with 3-fold serial dilution for 11 points in assay plate. 75 nL DMSO for high control and low control. […] For low control, add 5 μL/well assay buffer. And then spin down at 1000 rpm and centrifuge for 30 seconds. After enzyme system prepared, add 5 μL of Tb-antibody solution into each wells of assay plate. Spin down at 1000 rpm and centrifuge for 30 sec. After Tb-antibody added, also add 5 μL of tracer into the assay plate. Spin down at 1000 rpm and centrifuge for 30 sec. Incubate for 60 mins at 25° C. firstly and then continue to incubate the plate at 4° C. overnight. Read by envision in FRET mode. The Luminescence value was recorded by a multi-label reader Envision (PerkinElmer).
# TYK2-JH2 domain = biological target: T3, TYK2-JH2 domain (Homo sapiens, UniProt P29597); experiment: Binding activity test for JH2 domain of TYK2 (Tb-antibody/tracer FRET); details: for JAK1/TYK2 selectivity: ratio JAK1-JH2 IC50 / TYK2-JH2 IC50
# T3 construct: IC50 on JH2 domain activity (nM)
# Description: as §1
# [2] = Microsomal metabolic stability assay; format: in vitro ADME; details: pH 7.4, 0.5 mg/mL protein, 1 μM compound
# How it was run: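 Test article at 1 μM with 0.5 mg/mL microsomal protein and 2 mM NADPH, in 100 mM potassium phosphate pH 7.4 with 1.0 mM EDTA at 37 °C. Sampled at 0–45 min and quantified by LC/MS/MS. T1/2 from the slope of ln % remaining vs time.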
# [3] = dog liver microsomes, read-out: Dog LM Clint
# [4] = dog liver microsomes, read-out: Dog LM T½
# [5] = human liver microsomes, read-out: Human LM Clint
# [6] = human liver microsomes, read-out: Human LM T½
# [7] = rat liver microsomes, read-out: Rat LM Clint
# [8] = rat liver microsomes, read-out: Rat LM T½
# T1 sequence (P29597 whole entry P760L): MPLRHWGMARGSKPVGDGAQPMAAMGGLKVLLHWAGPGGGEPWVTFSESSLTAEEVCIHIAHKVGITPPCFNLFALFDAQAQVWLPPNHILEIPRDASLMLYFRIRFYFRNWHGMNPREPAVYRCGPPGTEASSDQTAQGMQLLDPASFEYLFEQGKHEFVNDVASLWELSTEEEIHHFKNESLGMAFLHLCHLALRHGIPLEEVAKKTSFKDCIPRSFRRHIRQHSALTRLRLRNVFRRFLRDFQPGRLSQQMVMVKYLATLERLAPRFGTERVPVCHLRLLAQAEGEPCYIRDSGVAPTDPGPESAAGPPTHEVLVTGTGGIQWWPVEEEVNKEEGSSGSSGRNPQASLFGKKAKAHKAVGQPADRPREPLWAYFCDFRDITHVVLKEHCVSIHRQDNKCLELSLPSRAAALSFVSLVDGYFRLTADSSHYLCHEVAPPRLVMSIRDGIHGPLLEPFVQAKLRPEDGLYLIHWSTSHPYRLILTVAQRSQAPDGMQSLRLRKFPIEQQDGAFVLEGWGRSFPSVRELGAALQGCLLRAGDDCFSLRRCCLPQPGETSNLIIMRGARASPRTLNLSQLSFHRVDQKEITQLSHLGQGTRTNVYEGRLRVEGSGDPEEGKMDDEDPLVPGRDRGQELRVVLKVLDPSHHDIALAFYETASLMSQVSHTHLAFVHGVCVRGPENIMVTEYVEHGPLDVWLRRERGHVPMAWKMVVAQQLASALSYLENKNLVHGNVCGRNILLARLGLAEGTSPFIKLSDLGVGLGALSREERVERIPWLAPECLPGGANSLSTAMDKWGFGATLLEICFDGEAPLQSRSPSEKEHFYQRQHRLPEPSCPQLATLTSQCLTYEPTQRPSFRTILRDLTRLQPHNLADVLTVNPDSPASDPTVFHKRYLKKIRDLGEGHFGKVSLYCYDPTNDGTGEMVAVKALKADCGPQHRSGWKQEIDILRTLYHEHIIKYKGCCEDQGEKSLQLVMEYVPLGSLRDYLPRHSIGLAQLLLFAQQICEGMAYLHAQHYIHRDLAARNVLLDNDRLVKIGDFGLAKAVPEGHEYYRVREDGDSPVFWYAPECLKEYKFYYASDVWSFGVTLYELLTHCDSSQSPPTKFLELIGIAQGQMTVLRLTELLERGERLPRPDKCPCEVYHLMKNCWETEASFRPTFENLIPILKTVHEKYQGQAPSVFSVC
# T3 sequence (P29597 589-875 limits assumed): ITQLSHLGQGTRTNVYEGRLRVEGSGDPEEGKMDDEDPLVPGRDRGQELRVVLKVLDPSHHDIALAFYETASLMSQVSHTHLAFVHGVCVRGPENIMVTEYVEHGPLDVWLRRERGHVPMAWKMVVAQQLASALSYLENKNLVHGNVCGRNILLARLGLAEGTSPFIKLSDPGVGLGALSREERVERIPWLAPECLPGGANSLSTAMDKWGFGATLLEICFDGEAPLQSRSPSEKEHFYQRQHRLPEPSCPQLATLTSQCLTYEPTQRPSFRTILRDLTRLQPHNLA
# T2 sequence (P23458 583-855 limits assumed): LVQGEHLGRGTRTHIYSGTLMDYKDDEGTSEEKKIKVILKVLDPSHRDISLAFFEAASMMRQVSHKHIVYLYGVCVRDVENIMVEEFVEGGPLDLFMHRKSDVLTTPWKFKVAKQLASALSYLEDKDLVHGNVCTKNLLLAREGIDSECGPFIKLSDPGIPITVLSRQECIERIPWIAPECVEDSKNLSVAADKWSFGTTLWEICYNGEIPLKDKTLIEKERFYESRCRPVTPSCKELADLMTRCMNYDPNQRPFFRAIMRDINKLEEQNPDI
Compound,GI50 [1] [nM],IC50 (JAK1-JH2 domain) [nM],IC50 (TYK2-JH2 domain) [nM],JAK1/TYK2 selectivity (TYK2-JH2 domain),"microsomal CLint at 1 μM [2, 3] [µL/min/mg]","half-life at 1 μM [2, 4] [h]","microsomal CLint at 1 μM [2, 5] [µL/min/mg]","half-life at 1 μM [2, 6] [h]","microsomal CLint at 1 μM [2, 7] [µL/min/mg]","half-life at 1 μM [2, 8] [h]"
"[2H]C([2H])([2H])NC(=O)c1cnc(NC(=O)C2CC2)cc1Nc1ncc2cnn(CCC(F)(F)F)c2c1OC [Example 275, 6-(Cyclopropanecarboxamido)-4-((7-methoxy-1-(3,3,3-trifluoropropyl)-1H-pyrazolo[4,3-c]pyridin-6-yl)amino)-N-(methyl-d3)nicotinamide]",118,27,0.449,60.2,,,,,,
"CCNC(=O)c1cnc(NC(=O)C2CC2)cc1Nc1ccc2cnn(CC)c2c1OC [Example 97, 6-(Cyclopropanecarboxamido)-N-ethyl-4-((1-ethyl-7-methoxy-1H-indazol-6-yl)amino)nicotinamide]",1270,> 299,4.38,,,,,,,
"[2H]C([2H])([2H])NC(=O)c1cnc(NC(=O)C2CC2)cc1Nc1cn(CC)c2ncn([C@@H](C)C(F)(F)F)c(=O)c12 (single isomer, unassigned) [Example 254B, (S*)-6-(cyclopropanecarboxamido)-4-((7-ethyl-4-oxo-3-(1,1,1-trifluoropropan-2-yl)-4,7-dihydro-3H-pyrrolo[2,3-d]pyrimidin-5-yl)amino)-N-(methyl-d3)nicotinamide]",,252,11.6,21.60,,,,,,
"[2H]C([2H])([2H])NC(=O)c1cnc(NC(=O)C2CC(C)C2)cc1Nc1ccc2cnn(CC)c2c1OC (stereo not shown) [Example 236, 4-((1-Ethyl-7-methoxy-1H-indazol-6-yl)amino)-N-(methyl-d3)-6-(3-methylcyclobutane-1-carboxamido)nicotinamide]",892,43.8,0.969,45.2,,,,,,
"[2H]C([2H])([2H])NC(=O)c1cnc(NC(=O)C2CC2)cc1Nc1nn(CCC)c2ccn(CC(F)(F)F)c(=O)c12 [Example 208, 6-(Cyclopropanecarboxamido)-N-(methyl-d3)-4-((4-oxo-1-propyl-5-(2,2,2-trifluoroethyl)-4,5-dihydro-1H-pyrazolo[4,3-c]pyridin-3-yl)amino)nicotinamide]",64.6,34.7,0.248,140.1,,,,,,
"[2H]C([2H])([2H])NC(=O)c1cnc(NC(=O)C2CC2)cc1Nc1ccn2ncc(F)c2c1OC [Example 253, 6-(Cyclopropanecarboxamido)-4-((3-fluoro-4-methoxypyrazolo[1,5-a]pyridin-5-yl)amino)-N-(methyl-d3)nicotinamide]",232,19,0.783,24.33,,,,,,
"[2H]C([2H])([2H])NC(=O)c1cnc(NC(=O)C2CC2)cc1Nc1ccc2cnn(C(C)C#N)c2c1OC (single isomer, unassigned) [Example 249A, (R*)-4-((1-(1-cyanoethyl)-7-methoxy-1H-indazol-6-yl)amino)-6-(cyclopropanecarboxamido)-N-(methyl-d3)nicotinamide]",495,18,0.715,25.15,,,,,,
"[2H]C([2H])([2H])NC(=O)c1cnc(NC(=O)C2CC2)cc1Nc1cn(C)c2ncn([C@@H](C)C(F)(F)F)c(=O)c12 (single isomer, unassigned) [Example 234B, (S*)-6-(cyclopropanecarboxamido)-N-(methyl-d3)-4-((7-methyl-4-oxo-3-(1,1,1-trifluoropropan-2-yl)-4,7-dihydro-3H-pyrrolo[2,3-d]pyrimidin-5-yl)amino)nicotinamide]",,244,5.78,42.2,,,,,,
"[2H]C([2H])([2H])NC(=O)c1cnc(NC(=O)C2CC2)cc1Nc1cn(CC)c2ncn([C@H](C)C(F)(F)F)c(=O)c12 (single isomer, unassigned) [Example 254A, (R*)-6-(cyclopropanecarboxamido)-4-((7-ethyl-4-oxo-3-(1,1,1-trifluoropropan-2-yl)-4,7-dihydro-3H-pyrrolo[2,3-d]pyrimidin-5-yl)amino)-N-(methyl-d3)nicotinamide]",,44.1,0.868,50.81,4.66,4.95,23,1,39.4,0.586
"[2H]C([2H])([2H])NC(=O)c1cnc(NC(=O)C2CC2)cc1Nc1cn(C)c2ccn(CC)c(=O)c12 [Example 100, 6-(Cyclopropanecarbonylamino)-4-[(5-ethyl-1-methyl-4-oxo-pyrrolo[3,2-c]pyridin-3-yl)amino]-N-(methyl-d3)pyridine-3-carboxamide]",374,,0.887,,< 18.6,> 3.1,28.6,1.53,49.5,0.794
"[2H]C([2H])([2H])NC(=O)c1cnc(Nc2ccn(C)n2)cc1Nc1ccc2cnn(C([2H])([2H])[2H])c2c1OC [Example 154, 4-((7-Methoxy-1-(methyl-d3)-1H-indazol-6-yl)amino)-N-(methyl-d3)-6-((1-methyl-1H-pyrazol-3-yl)amino)nicotinamide]",145,,1.19,,16.8,1.38,31.6,0.732,38.9,0.595
"[2H]C([2H])([2H])NC(=O)c1cnc(NC(=O)C2CC2)cc1Nc1cn(C)c2ccn(CC(F)(F)F)c(=O)c12 [Example 110, 6-(Cyclopropanecarboxamido)-N-(methyl-d3)-4-((1-methyl-4-oxo-5-(2,2,2-trifluoroethyl)-4,5-dihydro-1H-pyrrolo[3,2-c]pyridin-3-yl)amino)nicotinamide]",102,,0.92,,15.9,1.45,48.8,0.473,73,0.316
"[2H]C([2H])([2H])NC(=O)c1cnc(NC(=O)C2CC2)cc1Nc1cn(C)c2ccn(C(C)C(F)(F)F)c(=O)c12 (stereo not shown) [Example 190, 6-(Cyclopropanecarboxamido)-N-(methyl-d3)-4-((1-methyl-4-oxo-5-(1,1,1-trifluoropropan-2-yl)-4,5-dihydro-1H-pyrrolo[3,2-c]pyridin-3-yl)amino)nicotinamide]",78.3,,4.03,,14.7,1.57,69.3,0.333,46.4,0.498
"[2H]C([2H])([2H])NC(=O)c1cnc(NC(=O)C2CC2)cc1Nc1cn(CCOC)c2ccn(CC)c(=O)c12 [Example 193, 6-(Cyclopropanecarboxamido)-4-((5-ethyl-1-(2-methoxyethyl)-4-oxo-4,5-dihydro-1H-pyrrolo[3,2-c]pyridin-3-yl)amino)-N-(methyl-d3)nicotinamide]",368,,1.41,,11.2,2.06,10.8,2.14,53.8,0.43
"[2H]C([2H])([2H])NC(=O)c1nnc2cc1Nc1cc(cc(-c3ncn(C)n3)c1OC)COCc1cccc(n1)N2 [Example 68, 10-Methoxy-N-(methyl-d3)-11-(1-methyl-1H-1,2,4-triazol-3-yl)-15-oxa-2,4,5,8,21-pentaazatetracyclo[15.3.1.1^{3,7}.1^{9,13}]tricosa-1(21),3,5,7(23),9(22),10,12,17,19-nonaene-6-carboxamide]",42.1,,0.4,,11.4,2.02,6.45,3.58,47.1,0.49
"[2H]C([2H])([2H])NC(=O)c1nnc(NC(=O)C2CC2)cc1Nc1nn(CC)c2ccn(CC(F)(F)F)c(=O)c12 [Example 218, 6-(Cyclopropanecarboxamido)-4-((1-ethyl-4-oxo-5-(2,2,2-trifluoroethyl)-4,5-dihydro-1H-pyrazolo[4,3-c]pyridin-3-yl)amino)-N-(methyl-d3)pyridazine-3-carboxamide]",68.6,,0.343,,,,,,,
